Experimental data taken from patent US11564919B1, “Small molecule inhibitors for treatment of alpha viruses” (priority 2021, dated 2023).
Entries after “also recorded” stand apart in the source; their conditions may differ.

Legend:
CHIKV-GFP reporter virus = test: microbe, parasite or virus in culture; type: cell-based, Chikungunya virus (CHIKV) strain 181/25; settings: for IC50: Chikungunya virus, HeLa, read-out: IC50 against CHIKV-GFP reporter virus
VEEV TC-83 = type: cell-based, Venezuelan Equine Encephalitis Virus
CHIKV 181/25 [1] = type: cell-based, Chikungunya virus
Zika virus (ZIKV) = type: cell-based
RVFV MP12 = type: cell-based, Rift Valley fever virus
CHIKV 181/25 [2] = type: cell-based, Chikungunya virus; remark: listed apart in the source
HeLa cells = settings: 30 μM, 48 hours
A549 cells = settings: 30 μM, 48 hours

SMILES | CHIKV-GFP fluorescence, relative percent infection (CHIKV-GFP reporter virus) | IC50 (CHIKV-GFP reporter virus) | VEEV TC-83 infection (VEEV TC-83) | CHIKV 181/25 viral titer by time of compound addition (CHIKV 181/25 [1]) | ZIKV viral titer (Zika virus (ZIKV)) | viral titer of RVFV (RVFV MP12) | infection of CHIKV 181/25 (CHIKV 181/25 [2]) | percentage of VEEV TC-83 infected cells (VEEV TC-83) | reduction of HeLa cell viability (HeLa cells) | reduction of A549 cell viability (A549 cells)
O=C(/C=C/c1ccc2c(c1)OCO2)N1CCN(Cc2nc(-c3ccco3)cs2)CC1 [Compound I, (2E)-3-(2H-1,3-benzodioxol-5-yl)-1-(4-{[4-(furan-2-yl)-1,3-thiazol-2-yl]methyl}piperazin-1-yl)prop-2-en-1-one] | more effective in A549 cells | 10.9 µM | the only compound reducing VEEV TC-83 infection | relatively similar reduction of viral titer across all timepoints | no obvious reduction | minimal effectiveness |  |  |  | 
Sc1nnc2c(n1)[nH]c1ccccc12 [Compound III, 5H-[1,2,4]Triazino[5,6-b]indole-3-thiol] |  | 2.82 µM |  | relatively similar reduction of viral titer across all timepoints | some minimal effect |  | didn't reduce infection | reduced the percentage of VEEV TC-83 infected cells |  | 
Cn1c(=N)sc2c3ccccc3ccc21 [Compound IV, 3-methyl-2H,b3H-naphtho[2,1-d][1,3]thiazol-2-imine] | greater inhibition of virus infection in HeLa cells | 2.59 µM |  | strongest reduction with pre-treatment, with lessened efficacy at each consecutive timepoint; also recorded: consecutively reduced levels of efficacy at later timepoints | strong reduction | significantly reduced titer |  | reduced the percentage of VEEV TC-83 infected cells | 23.8% | 29%
